Where two headings read alike, the source gives them in different places.
Legend:
Format in all cases: in vivo
[1] = tested on: barnyardgrass (Echinochloa crus-galli); experiment: Test B flooded paddy test; conditions: Echinochloa crus-galli, 312 h; Flood, 125 g ai/ha; scale of 0 to 100, 0 is no effect, 100 is complete control; 13 to 15 d; read-out: Plant response rating, Barnyardgrass
Summary of the method: (§1)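 Plants were raised to the 2-leaf stage, then pots were flooded to 3 cm above the soil and the test compound was applied directly into the paddy water, with that depth held throughout. After 13 to 15 d in a greenhouse, injury was rated visually against untreated controls on a 0–100 scale (0 = no effect, 100 = complete control).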

[2] = tested on: ducksalad (Heteranthera limosa); experiment: Test B flooded paddy test; conditions: Heteranthera limosa, 312 h; Flood, 125 g ai/ha; scale of 0 to 100, 0 is no effect, 100 is complete control; 13 to 15 d; read-out: Plant response rating, Ducksalad
Summary of the method: as §1

rice (Oryza sativa) = experiment: Test B flooded paddy test; conditions: Oryza sativa, 312 h; Flood, 125 g ai/ha; scale of 0 to 100, 0 is no effect, 100 is complete control; 13 to 15 d; read-out: Plant response rating, Rice
Summary of the method: as §1

[3] = tested on: sedge, umbrella (small-flower umbrella sedge, Cyperus difformis); experiment: Test B flooded paddy test; conditions: Cyperus difformis, 312 h; Flood, 125 g ai/ha; scale of 0 to 100, 0 is no effect, 100 is complete control; 13 to 15 d; read-out: Plant response rating, Sedge, Umbrella
Summary of the method: as §1

[4] = tested on: foxtail, giant (giant foxtail, Setaria faberii); experiment: Test C pre-/postemergence greenhouse herbicide test; conditions: Setaria faberi, Foxtail, Giant, read-out: Plant response rating; for pest or weed control at 31 g/ha: 31 g ai/ha; for pest or weed control at 62 g/ha: 62 g ai/ha; for pest or weed control at 125 g/ha: 125 g ai/ha; for pest or weed control at 250 g/ha: 250 g ai/ha
Summary of the method: (§2)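 Plant response is scored on a 0–100 scale, where 100 means complete control, by visual comparison with controls 13 to 15 d after greenhouse treatment. Applications are made pre- and postemergence using a surfactant-containing, non-phytotoxic solvent formulation.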

[5] = tested on: galium (catchweed bedstraw, Galium aparine); experiment: as above; conditions: Galium, read-out: Plant response rating; for pest or weed control at 31 g/ha: 31 g ai/ha; for pest or weed control at 62 g/ha: 62 g ai/ha; for pest or weed control at 125 g/ha: 125 g ai/ha; for pest or weed control at 250 g/ha: 250 g ai/ha
Summary of the method: as §2

kochia (Kochia scoparia) = experiment: as above; conditions: Postemergence
Summary of the method: as §2

[6] = tested on: morningglory (Ipomoea coccinea); experiment: as above; conditions: Morningglory
Summary of the method: as §2

[7] = tested on: oilseed rape (Brassica napus); experiment: as above; conditions: Oilseed Rape
Summary of the method: as §2

[8] = tested on: ryegrass, Italian (Italian ryegrass, Lolium multiflorum); experiment: as above; conditions: Lolium multiflorum, Ryegrass, Italian, read-out: Plant response rating; for pest or weed control at 31 g/ha: 31 g ai/ha; for pest or weed control at 62 g/ha: 62 g ai/ha; for pest or weed control at 125 g/ha: 125 g ai/ha; for pest or weed control at 250 g/ha: 250 g ai/ha
Summary of the method: as §2

[9] = tested on: velvetleaf (Abutilon theophrasti); experiment: as above; conditions: Abutilon theophrasti, Velvetleaf, read-out: Plant response rating; for pest or weed control at 31 g/ha: 31 g ai/ha; for pest or weed control at 62 g/ha: 62 g ai/ha; for pest or weed control at 125 g/ha: 125 g ai/ha; for pest or weed control at 250 g/ha: 250 g ai/ha
Summary of the method: as §2

COc1cc(=O)n(-c2ccc(C(F)(F)F)cc2)nc1Cc1ccnc(C(F)(F)F)c1 [Compound 16, 5-methoxy-2-[4-(trifluoromethyl)phenyl]-6-[[2-(trifluoromethyl)-4-pyridinyl]methyl]-3(2H)-pyridazinone]
pest or weed control at 125 g/ha [1]: 45%
pest or weed control at 125 g/ha [2]: 20%
plant injury at 125 g/ha (rice (Oryza sativa)): 35%
pest or weed control at 125 g/ha [3]: 80%
pest or weed control at 31 g/ha ([4]; post-emergence, Postemergence): 15%
pest or weed control at 62 g/ha ([4]; post-emergence, Postemergence): 15%
pest or weed control at 125 g/ha ([4]; post-emergence, Postemergence): 30%
pest or weed control at 250 g/ha ([4]; post-emergence, Postemergence): 55%
pest or weed control at 31 g/ha ([4]; pre-emergence, Preemergence): 98%
pest or weed control at 62 g/ha ([4]; pre-emergence, Preemergence): 98%
pest or weed control at 125 g/ha ([4]; pre-emergence, Preemergence): 100%
pest or weed control at 250 g/ha ([4]; pre-emergence, Preemergence): 100%
pest or weed control at 31 g/ha ([5]; post-emergence, Postemergence): 80%
pest or weed control at 62 g/ha ([5]; post-emergence, Postemergence): 80%
pest or weed control at 125 g/ha ([5]; post-emergence, Postemergence): 90%
pest or weed control at 250 g/ha ([5]; post-emergence, Postemergence): 90%
pest or weed control at 31 g/ha ([5]; pre-emergence, Preemergence): 70%
pest or weed control at 62 g/ha ([5]; pre-emergence, Preemergence): 98%
pest or weed control at 125 g/ha ([5]; pre-emergence, Preemergence): 100%
pest or weed control at 250 g/ha ([5]; pre-emergence, Preemergence): 100%
Plant response rating (kochia (Kochia scoparia); 31 g ai/ha): 90
Plant response rating (kochia (Kochia scoparia); 62 g ai/ha): 90
Plant response rating (kochia (Kochia scoparia); 125 g ai/ha): 90
Plant response rating (kochia (Kochia scoparia); 250 g ai/ha): 90
Plant response rating ([6]; Postemergence, 31 g ai/ha): 50
Plant response rating ([6]; Postemergence, 62 g ai/ha): 70
Plant response rating ([6]; Postemergence, 125 g ai/ha): 98
Plant response rating ([6]; Postemergence, 250 g ai/ha): 98
Plant response rating ([6]; Preemergence, 31 g ai/ha): 45
Plant response rating ([6]; Preemergence, 62 g ai/ha): 95
Plant response rating ([6]; Preemergence, 125 g ai/ha): 100
Plant response rating ([6]; Preemergence, 250 g ai/ha): 100
Plant response rating ([7]; Postemergence, 31 g ai/ha): 60
Plant response rating ([7]; Postemergence, 62 g ai/ha): 60
Plant response rating ([7]; Postemergence, 125 g ai/ha): 80
Plant response rating ([7]; Preemergence, 31 g ai/ha): 65
Plant response rating ([7]; Preemergence, 62 g ai/ha): 100
Plant response rating ([7]; Preemergence, 125 g ai/ha): 100
Plant response rating ([7]; Preemergence, 250 g ai/ha): 100
pest or weed control at 31 g/ha ([8]; post-emergence, Postemergence): 5%
pest or weed control at 62 g/ha ([8]; post-emergence, Postemergence): 5%
pest or weed control at 125 g/ha ([8]; post-emergence, Postemergence): 15%
pest or weed control at 250 g/ha ([8]; post-emergence, Postemergence): 35%
pest or weed control at 31 g/ha ([8]; pre-emergence, Preemergence): 5%
pest or weed control at 62 g/ha ([8]; pre-emergence, Preemergence): 30%
pest or weed control at 125 g/ha ([8]; pre-emergence, Preemergence): 85%
pest or weed control at 250 g/ha ([8]; pre-emergence, Preemergence): 90%
pest or weed control at 31 g/ha ([9]; post-emergence, Postemergence): 25%
pest or weed control at 62 g/ha ([9]; post-emergence, Postemergence): 50%
pest or weed control at 125 g/ha ([9]; post-emergence, Postemergence): 60%
pest or weed control at 250 g/ha ([9]; post-emergence, Postemergence): 75%
pest or weed control at 62 g/ha ([9]; pre-emergence, Preemergence): 80%
pest or weed control at 125 g/ha ([9]; pre-emergence, Preemergence): 100%
pest or weed control at 250 g/ha ([9]; pre-emergence, Preemergence): 100%

COc1cc(=O)n(-c2ccc(F)cc2)nc1Cc1ccnc(C(F)(F)F)c1 [Compound 17, 2-(4-fluorophenyl)-5-methoxy-6-[[2-(trifluoromethyl)-4-pyridinyl]methyl]-3 (2H)-pyridazinone]
pest or weed control at 125 g/ha [1]: 90%
pest or weed control at 125 g/ha [2]: 90%
plant injury at 125 g/ha (rice (Oryza sativa)): 70%
pest or weed control at 125 g/ha [3]: 90%
pest or weed control at 31 g/ha ([4]; post-emergence, Postemergence): 10%
pest or weed control at 62 g/ha ([4]; post-emergence, Postemergence): 10%
pest or weed control at 125 g/ha ([4]; post-emergence, Postemergence): 20%
pest or weed control at 250 g/ha ([4]; post-emergence, Postemergence): 45%
pest or weed control at 31 g/ha ([4]; pre-emergence, Preemergence): 100%
pest or weed control at 62 g/ha ([4]; pre-emergence, Preemergence): 100%
pest or weed control at 125 g/ha ([4]; pre-emergence, Preemergence): 100%
pest or weed control at 250 g/ha ([4]; pre-emergence, Preemergence): 100%
pest or weed control at 31 g/ha ([5]; post-emergence, Postemergence): 60%
pest or weed control at 62 g/ha ([5]; post-emergence, Postemergence): 70%
pest or weed control at 125 g/ha ([5]; post-emergence, Postemergence): 75%
pest or weed control at 250 g/ha ([5]; post-emergence, Postemergence): 85%
pest or weed control at 31 g/ha ([5]; pre-emergence, Preemergence): 100%
pest or weed control at 62 g/ha ([5]; pre-emergence, Preemergence): 100%
pest or weed control at 125 g/ha ([5]; pre-emergence, Preemergence): 100%
pest or weed control at 250 g/ha ([5]; pre-emergence, Preemergence): 100%
Plant response rating (kochia (Kochia scoparia); 31 g ai/ha): 80
Plant response rating (kochia (Kochia scoparia); 62 g ai/ha): 90
Plant response rating (kochia (Kochia scoparia); 125 g ai/ha): 90
Plant response rating (kochia (Kochia scoparia); 250 g ai/ha): 90
Plant response rating ([6]; Postemergence, 31 g ai/ha): 65
Plant response rating ([6]; Postemergence, 62 g ai/ha): 65
Plant response rating ([6]; Postemergence, 125 g ai/ha): 65
Plant response rating ([6]; Postemergence, 250 g ai/ha): 70
Plant response rating ([6]; Preemergence, 31 g ai/ha): 85
Plant response rating ([6]; Preemergence, 62 g ai/ha): 85
Plant response rating ([6]; Preemergence, 125 g ai/ha): 100
Plant response rating ([6]; Preemergence, 250 g ai/ha): 100
Plant response rating ([7]; Postemergence, 31 g ai/ha): 5
Plant response rating ([7]; Postemergence, 62 g ai/ha): 20
Plant response rating ([7]; Postemergence, 125 g ai/ha): 25
Plant response rating ([7]; Preemergence, 31 g ai/ha): 50
Plant response rating ([7]; Preemergence, 62 g ai/ha): 100
Plant response rating ([7]; Preemergence, 125 g ai/ha): 100
Plant response rating ([7]; Preemergence, 250 g ai/ha): 100
pest or weed control at 31 g/ha ([8]; post-emergence, Postemergence): 5%
pest or weed control at 62 g/ha ([8]; post-emergence, Postemergence): 5%
pest or weed control at 125 g/ha ([8]; post-emergence, Postemergence): 5%
pest or weed control at 250 g/ha ([8]; post-emergence, Postemergence): 5%
pest or weed control at 31 g/ha ([8]; pre-emergence, Preemergence): 5%
pest or weed control at 62 g/ha ([8]; pre-emergence, Preemergence): 10%
pest or weed control at 125 g/ha ([8]; pre-emergence, Preemergence): 70%
pest or weed control at 250 g/ha ([8]; pre-emergence, Preemergence): 75%
pest or weed control at 31 g/ha ([9]; post-emergence, Postemergence): 20%
pest or weed control at 62 g/ha ([9]; post-emergence, Postemergence): 20%
pest or weed control at 125 g/ha ([9]; post-emergence, Postemergence): 30%
pest or weed control at 250 g/ha ([9]; post-emergence, Postemergence): 45%
pest or weed control at 62 g/ha ([9]; pre-emergence, Preemergence): 75%
pest or weed control at 125 g/ha ([9]; pre-emergence, Preemergence): 100%
pest or weed control at 250 g/ha ([9]; pre-emergence, Preemergence): 100%

Source: patent publication US10202361B2, “Pyridazinones as herbicides” (E I DU PONT DE NEMOURS AND COMPANY, priority 2014, dated 2019)
